# Key:
# PC-9/GR cells = test: Cell viability assay (CCK-8), PC-9/GR; type: cell-based, human; conditions: 72 h
# Protocol: Cell proliferation was measured using the Cell Counting Kit-8 (CCK-8, B34304, Bimake, USA). A549 (2 × 10^3/100 μL/well), PC-9 (3 × 10^3/100 μL/well) or PC-9/GR cells (3 × 10^3/100 μL/well) were plated into each well of 96-well plates (Costar, USA). […] Then, 10 μL of CCK-8 was added to each well, and cells were incubated for 1-4 h until the color of untreated controls turned to orange. The absorbance (A) was measured by a microplate reader (FLUOstar Omega-ACU, USA) at test and reference wavelengths of 450 nm. The percentage of growth was calculated as Cell viability (%) = [A (Compound +) - A (Blank) ] / [A (Compound -) - A (Blank) ] × 100%. Cell viability meant proliferation of cells. Each experiment was done at least in triplicate, and thrice independently.
# A549 cells [1] = test: Colony formation assay, A549; type: cell-based, human; conditions: A549, as low as 0.3 μM
# A549 cells [2] = test: Wound healing assay for migration; type: cell-based, human; conditions: 48 h
# Protocol: The motility of cells was measured by wound healing assay. Cells were seeded into 6-well plates and cultured to 90-100% confluent after 24 h. Wounds were made in each well of 6-well plates using pipette tips. […] The migration of cells was visualized under a microscope (4 ×, Nikon, Japan) and photographed in different time points (0 and 48 h).
# A549 cells [3] = test: Cell apoptosis assay (Annexin V-FITC/PI flow cytometry), A549; type: cell-based, human; conditions: A549, 1.0 μM, 72 h
# Protocol: (§1) Briefly, aliquots of 2 × 10^5 cells were seeded into 6-well plates and incubated for 24 h at 37 °C. […] After trypsinization and gently washing cells once with medium, the cells were washed twice with cold PBS. The precipitation was resuspended by 400 μL of 1 × binding buffer, and then resuspended cells were transferred into new 1.5 mL EP tubes. Then 3 μL of Annexin V-FITC and 5 μL of propidium iodide were added to the resuspended cells with further incubation at room temperature for 15 min in the dark. The analysis was done on Guava easyCyte (USA) and FlowJo 7.6 software.
# PC-9 cells = test: Cell apoptosis assay (Annexin V-FITC/PI flow cytometry), PC-9; type: cell-based, human; conditions: PC-9, 1.0 μM, 72 h
# Protocol: as §1
# [4] = test system: A549 cells with STAT3 knock down / knock out; test: Cell proliferation assay in A549 cells with STAT3 knocked down (siRNA) or knocked out (CRISPR/Cas9); type: cell-based, human
# From the text: To knockout the STAT3 gene in A549 cells using CRISPR/Cas9 system, the lentiCRISPRv2 vector (gift from Professor Junjian Wang, Sun Yat-Sen University, China) was used. An optimized guide RNA (gRNA) targeting the exon2 of STAT3 was designed in an online CRISPR design tool (http://crispor.tefor.net/). Then the guide RNA (synthesized by Sangon Biotech) inserted into lentiCRISPRv2 vector and the recombinant plasmid (sgSTAT3) was transfected and amplified in E.coli JM109. The confirmed and purified sgSTAT3 plasmid was transfected into A549 cells using lentivirus, after 48h post-transfection, cells were selected by introducing into 3 μg/mL puromycin for 2 weeks. Then the puromycin-resistant cells were planted into 96-wells plate with a density of one single cell per well and expanse to select the STAT3-konckout cells. The STAT3-konckout cells isolated from the single-colony were verified by western blotting analysis. The gRNA used to knockout STAT3 as follows,
# Cell proliferation was measured using the Cell Counting Kit-8 (CCK-8, B34304, Bimake, USA). […] The absorbance (A) was measured by a microplate reader (FLUOstar Omega-ACU, USA) at test and reference wavelengths of 450 nm. The percentage of growth was calculated as Cell viability (%) = [A (Compound +) - A (Blank) ] / [A (Compound -) - A (Blank) ] × 100%. […]
# Bcl-2, Bcl-xL and c-Myc = test: Western blot of STAT3 downstream genes in A549 and PC-9 cells; type: cell-based, human; conditions: A549 and PC-9, 0-3 μM, 24 h
# Protocol: (§2) Cells or tumor tissue were lysed with RIPA buffer (Beyotime, Shanghai, China) supplemented with protease inhibitors (Beyotime, Shanghai, China) and phosphatase inhibitors (Bimake, USA). Lysates were denatured by heating for 5 min at 99 °C and loaded on 4-10% SDS-polyacrylamide gel electrophoresis. Then the proteins were transferred to polyvinylidene fluoride (PVDF) membranes (Millipore, USA). The membranes were blocked and probed with primary antibodies and secondary HPR-conjugated antibodies. At last the membranes were detected by chemiluminescence (Tanon, Shanghai, China). For co-immunoprecipitation experiments, 293T cells were plated and grew to about 80% confluency, then co-transfected with plasmids of HA-STAT3 and Flag-STAT3 using Lipofectamine 2000. After 24 h, cells were treated with different concentrations of W2014-S for following 24 h, and stimulated with IL-6 (100 ng/mL) for 1 h. Cells were lysed with IP RIPA buffer (Beyotime, Shanghai, China) supplemented with protease inhibitors (Beyotime, Shanghai, China) and phosphatase inhibitors (Bimake, America), and lysates were cultured with Anti-flag Affinity Gel (B23102, Bimake, USA) overnight at 4 ℃. The gel was washed by PBST for three times and added 1×loading buffer and denatured by heating for 5 min at 99 ℃. Then the proteins were resolved on SDS-PAGE, transferred to PVDF membranes and analysed with immunoblotting.
# STAT1 and STAT5 = test: Western blot of STAT1 and STAT5 activation in A549 and PC-9 cells; type: cell-based, human
# Protocol: as §2
# JAK2 = test: Western blot of phosphorylated and total JAK2 in A549 and PC-9 cells; type: cell-based, human; conditions: A549 and PC-9, 0-3 μM, 24 h
# Protocol: as §2
# AKT = test: Western blot of phosphorylated and total AKT in A549 and PC-9 cells; type: cell-based, human; conditions: A549 and PC-9, 0-3 μM, 24 h
# Protocol: as §2
# [5] = test system: pY705-STAT3 and pY1068-EGFR; test: Western blot of pY705-STAT3 and pY1068-EGFR in PC-9/GR cells; type: cell-based, human; conditions: W2014-S 1 μM and/or gefitinib 2 μM, 24 h
# Protocol: Cells or tumor tissue were lysed with RIPA buffer (Beyotime, Shanghai, China) supplemented with protease inhibitors (Beyotime, Shanghai, China) and phosphatase inhibitors (Bimake, USA). Lysates were denatured by heating for 5 min at 99 °C and loaded on 4-10% SDS-polyacrylamide gel electrophoresis. Then the proteins were transferred to polyvinylidene fluoride (PVDF) membranes (Millipore, USA). The membranes were blocked and probed with primary antibodies and secondary HPR-conjugated antibodies. At last the membranes were detected by chemiluminescence (Tanon, Shanghai, China). […] Cells were lysed with IP RIPA buffer (Beyotime, Shanghai, China) supplemented with protease inhibitors (Beyotime, Shanghai, China) and phosphatase inhibitors (Bimake, America), and lysates were cultured with Anti-flag Affinity Gel (B23102, Bimake, USA) overnight at 4 ℃. The gel was washed by PBST for three times and added 1×loading buffer and denatured by heating for 5 min at 99 ℃. Then the proteins were resolved on SDS-PAGE, transferred to PVDF membranes and analysed with immunoblotting.
# STAT3-STAT3 dimerization = STAT3-STAT3 dimerization (Homo sapiens, UniProt P40763); test: Co-immunoprecipitation of HA-STAT3 and Flag-STAT3 in HEK-293T cells; type: cell-based; set-up: expressed in transfected cells; conditions: 24 h, 50 ng/mL EGF 30 min
# Chain of STAT3-STAT3 dimerization (P40763 whole entry): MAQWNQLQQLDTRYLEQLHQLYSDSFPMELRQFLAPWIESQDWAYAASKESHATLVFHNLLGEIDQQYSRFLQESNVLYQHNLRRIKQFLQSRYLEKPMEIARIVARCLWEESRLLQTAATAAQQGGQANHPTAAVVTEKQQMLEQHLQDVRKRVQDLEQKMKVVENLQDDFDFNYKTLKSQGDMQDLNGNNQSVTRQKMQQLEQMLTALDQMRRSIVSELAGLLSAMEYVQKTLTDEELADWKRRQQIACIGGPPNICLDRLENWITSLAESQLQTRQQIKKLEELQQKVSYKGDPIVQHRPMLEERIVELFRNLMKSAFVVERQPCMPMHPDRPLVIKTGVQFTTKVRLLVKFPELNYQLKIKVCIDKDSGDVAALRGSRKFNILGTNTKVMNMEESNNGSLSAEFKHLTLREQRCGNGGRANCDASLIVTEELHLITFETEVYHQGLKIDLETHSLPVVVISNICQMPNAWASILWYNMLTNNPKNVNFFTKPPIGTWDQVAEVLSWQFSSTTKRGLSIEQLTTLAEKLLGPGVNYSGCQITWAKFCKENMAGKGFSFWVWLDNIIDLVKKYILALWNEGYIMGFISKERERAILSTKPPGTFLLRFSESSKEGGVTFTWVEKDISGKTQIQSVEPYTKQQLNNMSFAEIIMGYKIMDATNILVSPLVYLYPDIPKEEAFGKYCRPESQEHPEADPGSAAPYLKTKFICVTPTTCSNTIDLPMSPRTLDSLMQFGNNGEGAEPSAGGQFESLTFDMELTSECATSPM
# Protocol: as §2, with “After 24 h, cells were treated with different concentrations of W2014-S for following 24 h, and stimulated with IL-6 (100 ng/mL) for 1 h.” left out
structure (smiles),measurement,setting,value
C[C@H](Oc1ccc(-c2nc3nc(C4=CCN(C(=O)OC(C)(C)C)CC4)ccc3[nH]2)cc1)c1ccccc1 [W2014-S],sensitization of acquired resistance (erlotinib),"PC-9/GR cells; PC-9/GR, with erlotinib",sensitized acquired resistance
same,resensitization of PC-9/GR to gefitinib,"PC-9/GR cells; W2014-S 1 μM, gefitinib 2 μM",sufficient to resensitize PC-9/GR to gefitinib
same,colony formation,A549 cells [1],significantly suppressed the colony formation
same,cell migration,A549 cells [2],remarkably inhibited the migration
same,apoptosis,A549 cells [3],induced apoptosis
same,apoptosis,PC-9 cells,induced apoptosis
same,anti-cancer activities in STAT3 knocked out cells,"[4]; A549, Crispr/cas9",significantly attenuated
same,anti-cancer activities in STAT3 knocked down cells,"[4]; A549, siRNA interference",significantly attenuated
same,"expression of STAT3 downstream genes Bcl-2, Bcl-xL and c-Myc","Bcl-2, Bcl-xL and c-Myc",inhibited by W2014-S dose-dependently
same,STAT1 and STAT5 activation,STAT1 and STAT5,no obvious effect
same,protein level of phosphorylated JAK2 and total JAK2,JAK2,little or no effect
same,phosphorylation of AKT and total AKT,AKT,not affected
same,level of pY705-STAT3 and pY1068-EGFR,[5],reduced the phosphorylation of STAT3
same,binding of HA-STAT3 and Flag-STAT3 (STAT3 dimerization),STAT3-STAT3 dimerization,inhibited the binding of HA-STAT3 and Flag-STAT3 in intact cells even at 0.3 μM

# From publication PMC7738869, “A novel STAT3 inhibitor W2014-S regresses human non-small cell lung cancer xenografts and sensitizes EGFR-TKI acquired resistance” (Theranostics, 2021)
